Where no end group is shown, it is not given here. [ ]: non-standard residue; d: D form.

The text below walks through data of patent US7632814B2, “HYD1 peptides as anti-cancer agents” (University of South Florida, priority 2006, dated 2009).

Assay [1] has as its system 8226 cells. Nature of the assay: Detection of apoptosis, annexin V staining and FACS, suspension culture. The format is cell-based. How it is done: FIG. 17 is a graph showing that HYD1 induces apoptosis as a single agent in 8226 and H929 cells cultured in suspension. 8226 and H929 cells were either treated with varying concentrations of HYD1 or vehicle control (equal volume sterile double distilled water) for 24 hours and apoptotic cells were detected by FACS analysis of annexin V positive cells. HYD1 specific apoptosis equals cell death due to peptide minus any apoptosis detected in control cells.
(§1) Detection of Apoptosis. A flow cytometric assay measuring Annexin V/PI staining was used to measure apoptotic cells following 24 hours of peptide exposure as previously described (Damiano J S et al. Blood, 1999; 93:1658-1667). The assay was performed in triplicate and 3 independent experiments were performed. Caspase 3 and 8 activity was measured at 6 and 24 hrs post peptide treatment per manufactures' instructions (BD Biosciences, San Jose, Calif.). The caspase assays were performed in triplicate and repeated twice.
Myeloma cells were plated at a density of 400,000 cells per ml in a 24 well plate. Cells were treated with the indicated dose of the peptide for 24 hours. Following 24 hrs of peptide exposure, apoptotic cells were detected using Annexin V staining and FACS analysis. Ten thousand events were analyzed by flow cytometry (Becton Dickinson, San Jose, Calif.). Experiments were performed in triplicate and repeated twice. Shown is a representative figure.

In another assay the test system is caspase 3. Nature of the assay: Caspase 3 activity in H929 cells (fluorescent substrate). The format is cell-based. Conditions: 6 and 24 hrs, relative to treatment with melphalan. The procedure:
Cells were treated for 6 hours (FIG. 21A) or 24 hours (FIG. 21B) and caspase 3 activity was measured using a fluorescent substrate. Shown is a representative experiment performed in triplicate. The experiment was repeated twice and similar results were obtained.
as §1

The subject of the next assay is caspase 8. Nature of the assay: Caspase 8 activity in H929 cells (fluorescent substrate). The format is cell-based. The following applies: 6 or 24 hrs. How it is done:
Cells were treated for 6 hours (FIG. 22A) or 24 hours (FIG. 22B) and caspase 8 activity was measured using a fluorescent substrate. Shown is a representative experiment performed in triplicates. The experiment was repeated twice and similar results were obtained.
as §1

The test system of assay [2] is 8226 cells. Kind of assay: HS-5 co-culture (SF+A) model of drug resistance, melphalan apoptosis. It is filed as cell-based. How it is done:
(§2) Co-culture model. HS-5/GFP cells were plated at a density of 500,000 cells per ml and incubated overnight. Myeloma cells were incubated with vehicle control (water), 50 μg/ml HYD1 or 50 μg/ml HYD1S 30 minutes prior to the addition of myeloma cells (400,000 cell/ml) to either control plates or plates containing HS-5 cells. Myeloma cells were incubated with HS-5 cells for three hours prior to the addition of melphalan. Apoptotic cells were measured in GFP negative myeloma cells, by annexin PE staining and FACS analysis (n=9). ANOVO was performed to determine significance between conditions.
(§3) Briefly, 8226 myeloma cells were pre-incubated with varying concentrations of either HYD1 or the scrambled HYD1S peptide for 30 minutes prior to allowing cells to attach to FN for two hours. Following two hours of cell adhesion, the amount of cells adherent to FN was measured. The next objective was to determine whether treatment of tumor cells with HYD1 results in potentiation of melphalan induced cell death in the BMS co-culture model (SF+A). […] For these studies, the HYD1 and HYD1S were pre-incubated with the […] for 30 minutes, and then cells and culture media containing the peptide were placed into the S-5 culture dish. Myeloma cells were co-cultured for an additional 3 hours with HS-5 cells before the addition of melphalan. Twenty-four hours after drug treatment, apoptosis was measured by Annexin V-PE positive events by FACS analysis. The HS-5 cells constitutively express GFP and thus it is possible to gate GFP negative cells only (myeloma cells) for the apoptotic analysis.

Another assay deals with H929 cells. The assay is described as above. The format is cell-based. The procedure:
as §2, §3

The target of the next assay is T1, β1 integrin (Homo sapiens, UniProt P05556).
T1 construct: endogenous in cells
Nature of the assay: Binding of peptide to the cell surface. An excerpt: Another aspect of the invention concerns a method of identifying modulators of peptide binding (a screen for molecules that displace peptide binding). Agents that are identified as being capable of competing with the HYD1 peptides of the invention for binding to β1 integrin may have utility as cytotoxic agents for research or therapy (e.g., for cancer treatment). The method comprising providing a candidate agent (such as a chemical compound, antibody, nucleic acid, or peptide); and determining whether the agent inhibits (e.g., disrupts, prevents, or interferes with), the ability of a HYD1 peptide of the invention (HYD1 or a fragment or variant thereof) to bind to β1 integrin on a cell surface (e.g., cancer cell surface) and/or inhibit β1 integrin mediated adhesion, in vitro or in vivo (e.g., in an animal model). Preferably, the cell is a cancer cell such as a myeloma cell or a cell of other cancer types (see, for example Table 1). Preferably, the peptide is labeled with a detectable moiety (e.g., a fluorescent tag, such as […]) to facilitate the determining step. Examples of controls that may be utilized in carrying out the screening method include, but are not limited to, unlabeled HYD1 peptides (HYD1, or a fragment or variant thereof); scrambled peptides (such as HYD1S); β1 integrin blocking antibody; and non-specific surface antigen binding antibody (such as CD138 for myeloma cells). Advantageously, using the screening assay, labeled HYD1 or fragments or variants thereof, can be used to screen candidates such as small molecules, on natural product libraries, in a rapid, high-throughput fashion. […] Fluorescence polarization (FP) analysis can be used to screen small molecule or natural product libraries for discovery of novel compounds that mimic the specific binding and potentially the biological activity of HYD1. The FP assay is based on the extent of depolarization of the free versus bond peptide, which can be accurately measured on commercially available FP plate readers. […] In summary, a high throughput screen (HTS) can be used to bind small molecules prior to the addition of an HYD1 probe and molecules of interest can be identified by displacement of bond peptide, with a corresponding increase in unbound peptide by FP analysis. An analogous high-throughput binding assay based on fluorescence polarization, which allows screening for small molecules that bind to the STAT3 SH2 domain, is described in Schust J. and Berg T., Anal Biochem., 2004 Jul. 1; 330(1):114-8. […]

T1 sequence (P05556 21-798): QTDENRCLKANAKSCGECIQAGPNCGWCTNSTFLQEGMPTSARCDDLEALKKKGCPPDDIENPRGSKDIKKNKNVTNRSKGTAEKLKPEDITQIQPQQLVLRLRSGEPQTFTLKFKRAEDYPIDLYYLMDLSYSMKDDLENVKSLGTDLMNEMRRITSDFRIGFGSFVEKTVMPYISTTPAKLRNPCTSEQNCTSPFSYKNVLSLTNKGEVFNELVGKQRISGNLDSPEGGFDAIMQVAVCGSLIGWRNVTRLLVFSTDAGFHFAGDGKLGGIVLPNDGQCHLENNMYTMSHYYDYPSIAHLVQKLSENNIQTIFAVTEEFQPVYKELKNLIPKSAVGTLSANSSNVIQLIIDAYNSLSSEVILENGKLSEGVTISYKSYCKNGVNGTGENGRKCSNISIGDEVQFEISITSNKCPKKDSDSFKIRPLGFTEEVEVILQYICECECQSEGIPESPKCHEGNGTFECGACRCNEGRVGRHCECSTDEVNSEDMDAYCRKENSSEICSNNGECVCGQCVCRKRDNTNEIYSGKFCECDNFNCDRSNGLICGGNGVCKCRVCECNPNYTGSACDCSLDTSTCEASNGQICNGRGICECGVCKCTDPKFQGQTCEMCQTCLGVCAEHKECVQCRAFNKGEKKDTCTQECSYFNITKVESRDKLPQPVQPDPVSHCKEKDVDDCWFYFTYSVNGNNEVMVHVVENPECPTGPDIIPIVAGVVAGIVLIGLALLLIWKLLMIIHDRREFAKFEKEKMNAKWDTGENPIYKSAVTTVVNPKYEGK

Consider “kikmviswkg ([dK][dI][dK][dM][dV][dI][dS][dW][dK]G) [HYD1]”, for which the “induction of annexin V positive cells” value with 8226 cells [1] (suspension culture, single agent, 24 hours) was “dose dependent induction of annexin V positive cells”. Further, the “melphalan-induced apoptosis in cells cultured in suspension” value with 8226 cells [1] (suspension, peptide with melphalan) was “increased melphalan-induced apoptosis”. Moreover, the “caspase 3 activity” value in the assay with caspase 3 was “minimal caspase 3 activity”. For the same substance, in the assay on caspase 8, the “caspase 8 activity” value is reported as “no caspase 8 activity was detected”. The “resistance to melphalan associated with the bone marrow stroma model” value in the assay with 8226 cells [2] (8226 cells) is “completely reversed resistance”. Further, in the assay with 8226 cells [2] (8226 cells co-cultured with HS-5, 50 μg/ml peptide, with melphalan), the “potentiation of melphalan-induced apoptosis in the SF+A model” value is recorded as “potentiates melphalan-induced apoptosis”. Also, in the assay with H929 cells (H929 cells), the “resistance to melphalan associated with HS-5 co-culture” value is listed as “reduced resistance”. Further, the “potentiation of melphalan-induced apoptosis in the SF+A model” value in the assay on H929 cells (H929 cells co-cultured with HS-5, 50 μg/ml peptide, with melphalan) is reported as “potentiates melphalan-induced apoptosis”. For the same substance, in the assay with β1 integrin, the “binding to the cell surface” value is reported as “bind to the cell surface” and the “blocking of cell surface binding by β1 integrin antibody” value was “is blocked”.
